The source made the active and inactive calls. The rule behind the calls is not given here.
Test system: CCRIS mutagenicity, Ames/micronucleus/aberration tests
Test: CCRIS mutagenicity studies
[1] = Test System: AMES SALMONELLA TYPHIMURIUM, Strain/Indicator: TA98, Metabolic Activation: NONE, Method: PREINCUBATION
[2] = Test System: AMES SALMONELLA TYPHIMURIUM, Strain/Indicator: TA100, Metabolic Activation: NONE, Method: PREINCUBATION
[3] = Test System: AMES SALMONELLA TYPHIMURIUM, Strain/Indicator: TA104, Metabolic Activation: NONE, Method: PREINCUBATION

Q: For C=C(C)C(=O)OCCN(C)C, which mutagenic call [1] is on record?
A: inactive; negative

Q: And the mutagenic call (Test System: AMES SALMONELLA TYPHIMURIUM, Strain/Indicator: TA98, Metabolic Activation: RAT LIVER S-9, PHENOBARBITAL AND BETA-NAPHTHOFLAVONE, Method: PREINCUBATION)?
A: inactive; negative

Q: What about the mutagenic call [2] of the same compound?
A: inactive; negative

Q: And the mutagenic call (Test System: AMES SALMONELLA TYPHIMURIUM, Strain/Indicator: TA100, Metabolic Activation: RAT LIVER S-9, PHENOBARBITAL AND BETA-NAPHTHOFLAVONE, Method: PREINCUBATION)?
A: inactive; negative

Q: What about the mutagenic call (Test System: AMES SALMONELLA TYPHIMURIUM, Strain/Indicator: TA102, Metabolic Activation: NONE, Method: PREINCUBATION) of the same compound?
A: inactive; negative

Q: What about the mutagenic call (Test System: AMES SALMONELLA TYPHIMURIUM, Strain/Indicator: TA102, Metabolic Activation: RAT LIVER S-9, PHENOBARBITAL AND BETA-NAPHTHOFLAVONE, Method: PREINCUBATION) of the same compound?
A: inactive; negative

Q: And the mutagenic call [3]?
A: inactive; negative

Q: And the mutagenic call (Test System: AMES SALMONELLA TYPHIMURIUM, Strain/Indicator: TA104, Metabolic Activation: RAT LIVER S-9, PHENOBARBITAL AND BETA-NAPHTHOFLAVONE, Method: PREINCUBATION)?
A: active; positive

Q: What about the mutagenic call (Test System: AMES SALMONELLA TYPHIMURIUM, Strain/Indicator: TA1535, Metabolic Activation: NONE, Method: PREINCUBATION) of the same compound?
A: inactive; negative

Q: And the mutagenic call (Test System: AMES SALMONELLA TYPHIMURIUM, Strain/Indicator: TA1535, Metabolic Activation: RAT LIVER S-9, PHENOBARBITAL AND BETA-NAPHTHOFLAVONE, Method: PREINCUBATION)?
A: inactive; negative

Q: What about the mutagenic call (Test System: AMES SALMONELLA TYPHIMURIUM, Strain/Indicator: TA1537, Metabolic Activation: NONE, Method: PREINCUBATION) of the same compound?
A: inactive; negative

Q: And the mutagenic call (Test System: AMES SALMONELLA TYPHIMURIUM, Strain/Indicator: TA1537, Metabolic Activation: RAT LIVER S-9, PHENOBARBITAL AND BETA-NAPHTHOFLAVONE, Method: PREINCUBATION)?
A: inactive; negative

Q: And the mutagenic call (Test System: E.COLI, Strain/Indicator: WP2UVRA/PKM101, Metabolic Activation: NONE, Method: PREINCUBATION)?
A: inactive; negative

Q: What about the mutagenic call (Test System: E.COLI, Strain/Indicator: WP2UVRA/PKM101, Metabolic Activation: RAT LIVER S-9, PHENOBARBITAL AND BETA-NAPHTHOFLAVONE, Method: PREINCUBATION) of the same compound?
A: inactive; negative

Q: And the mutagenic call (Test System: E.COLI, Strain/Indicator: WP2UVRA, Metabolic Activation: NONE, Method: PREINCUBATION)?
A: inactive; negative

Q: And the mutagenic call (Test System: E.COLI, Strain/Indicator: WP2UVRA, Metabolic Activation: RAT LIVER S-9, PHENOBARBITAL AND BETA-NAPHTHOFLAVONE, Method: PREINCUBATION)?
A: inactive; negative

Q: With O=[N+]([O-])c1ccc2c(c1)CCc1cc3c(cc1-2)CCc1ccccc1-3 as the compound, how does the mutagenic call (Test System: AMES SALMONELLA TYPHIMURIUM, Strain/Indicator: TA98(1,8-DNP6), Metabolic Activation: NONE) read?
A: active; positive

Q: What about the mutagenic call (Test System: AMES SALMONELLA TYPHIMURIUM, Strain/Indicator: TA98(1,8-DNP6), Metabolic Activation: RAT, LIVER, S-9, AROCLOR 1254) of the same compound?
A: active; positive

Q: And the mutagenic call (Test System: AMES SALMONELLA TYPHIMURIUM, Strain/Indicator: TA98(NR), Metabolic Activation: NONE)?
A: active; positive

Q: And the mutagenic call (Test System: AMES SALMONELLA TYPHIMURIUM, Strain/Indicator: TA98(NR), Metabolic Activation: RAT, LIVER, S-9, AROCLOR 1254)?
A: active; positive

Q: What about the mutagenic call (Test System: AMES SALMONELLA TYPHIMURIUM, Strain/Indicator: TA98, Metabolic Activation: NONE) of the same compound?
A: active; positive

Q: What about the mutagenic call (Test System: AMES SALMONELLA TYPHIMURIUM, Strain/Indicator: TA98, Metabolic Activation: RAT, LIVER, S-9, AROCLOR 1254) of the same compound?
A: active; positive

Q: What about the mutagenic call (Test System: AMES SALMONELLA TYPHIMURIUM, Strain/Indicator: TA100(NR), Metabolic Activation: NONE) of the same compound?
A: inactive; negative

Q: And the mutagenic call (Test System: AMES SALMONELLA TYPHIMURIUM, Strain/Indicator: TA100(NR), Metabolic Activation: RAT, LIVER, S-9, AROCLOR 1254)?
A: active; positive

Q: What about the mutagenic call (Test System: AMES SALMONELLA TYPHIMURIUM, Strain/Indicator: TA100, Metabolic Activation: NONE) of the same compound?
A: active; positive

Q: And the mutagenic call (Test System: AMES SALMONELLA TYPHIMURIUM, Strain/Indicator: TA100, Metabolic Activation: RAT, LIVER, S-9, AROCLOR 1254)?
A: active; positive

Q: What about the mutagenic call (Test System: AMES SALMONELLA TYPHIMURIUM, Strain/Indicator: TA104, Metabolic Activation: NONE) of the same compound?
A: active; positive

Q: What about the mutagenic call (Test System: AMES SALMONELLA TYPHIMURIUM, Strain/Indicator: TA104, Metabolic Activation: RAT, LIVER, S-9, AROCLOR 1254) of the same compound?
A: active; positive

Q: With Cc1ccc(N(O)C=O)cc1 as the compound, how does the mutagenic call (Test System: AMES SALMONELLA TYPHIMURIUM, Strain/Indicator: TA98, Metabolic Activation: NONE, Method: STANDARD PLATE) read?
A: inactive; negative

Q: What about the mutagenic call (Test System: AMES SALMONELLA TYPHIMURIUM, Strain/Indicator: TA98, Metabolic Activation: RAT, LIVER, S-9, AROCLOR 1254, Method: STANDARD PLATE) of the same compound?
A: active; positive

Q: And the mutagenic call (Test System: AMES SALMONELLA TYPHIMURIUM, Strain/Indicator: TA100, Metabolic Activation: NONE, Method: STANDARD PLATE)?
A: inactive; negative

Q: And the mutagenic call (Test System: AMES SALMONELLA TYPHIMURIUM, Strain/Indicator: TA100, Metabolic Activation: RAT, LIVER, S-9, AROCLOR 1254, Method: STANDARD PLATE)?
A: active; positive

Q: With COCCN(N=O)C(N)=O as the compound, how does the mutagenic call (Test System: E. COLI B, Strain/Indicator: H/R30R, Metabolic Activation: NONE) read?
A: active; positive

Q: What about the mutagenic call (Test System: E. COLI B, Strain/Indicator: HS30R, Metabolic Activation: NONE) of the same compound?
A: active; positive

Q: How did the mutagenic call (Test System: AMES SALMONELLA TYPHIMURIUM, Strain/Indicator: TA98, Metabolic Activation: NONE, Method: GAS EXPOSURE) turn out when CN was run?
A: inactive; negative

Q: And the mutagenic call [1]?
A: inactive; negative

Q: And the mutagenic call (Test System: AMES SALMONELLA TYPHIMURIUM, Strain/Indicator: TA98, Metabolic Activation: RAT, LIVER, S-9, AROCLOR 1254 (5,15 OR 30%), Method: PREINCUBATION)?
A: inactive; negative

Q: And the mutagenic call (Test System: AMES SALMONELLA TYPHIMURIUM, Strain/Indicator: TA98, Metabolic Activation: RAT, LIVER, S-9, SODIUM PHENOBARBITAL AND 5,6-BENZOFLAVONE, Method: GAS EXPOSURE)?
A: inactive; negative

Q: What about the mutagenic call (Test System: AMES SALMONELLA TYPHIMURIUM, Strain/Indicator: TA100, Metabolic Activation: NONE, Method: GAS EXPOSURE) of the same compound?
A: inactive; negative

Q: What about the mutagenic call [2] of the same compound?
A: inactive; negative

Q: And the mutagenic call (Test System: AMES SALMONELLA TYPHIMURIUM, Strain/Indicator: TA100, Metabolic Activation: RAT, LIVER, S-9, AROCLOR 1254 (5,15 OR 30%), Method: PREINCUBATION)?
A: inactive; negative

Q: And the mutagenic call (Test System: AMES SALMONELLA TYPHIMURIUM, Strain/Indicator: TA100, Metabolic Activation: RAT, LIVER, S-9, SODIUM PHENOBARBITAL AND 5,6-BENZOFLAVONE, Method: GAS EXPOSURE)?
A: inactive; negative

Q: And the mutagenic call [3]?
A: inactive; negative

Q: What about the mutagenic call (Test System: AMES SALMONELLA TYPHIMURIUM, Strain/Indicator: TA104, Metabolic Activation: RAT, LIVER, S-9, AROCLOR 1254 (5,15 OR 30%), Method: PREINCUBATION) of the same compound?
A: inactive; negative

Q: And the mutagenic call (Test System: AMES SALMONELLA TYPHIMURIUM, Strain/Indicator: TA1535, Metabolic Activation: NONE, Method: GAS EXPOSURE)?
A: inactive; negative

Q: What about the mutagenic call (Test System: AMES SALMONELLA TYPHIMURIUM, Strain/Indicator: TA1535, Metabolic Activation: RAT, LIVER, S-9, SODIUM PHENOBARBITAL AND 5,6-BENZOFLAVONE, Method: GAS EXPOSURE) of the same compound?
A: inactive; negative

Q: And the mutagenic call (Test System: AMES SALMONELLA TYPHIMURIUM, Strain/Indicator: TA1537, Metabolic Activation: NONE, Method: GAS EXPOSURE)?
A: inactive; negative

Q: And the mutagenic call (Test System: AMES SALMONELLA TYPHIMURIUM, Strain/Indicator: TA1537, Metabolic Activation: RAT, LIVER, S-9, SODIUM PHENOBARBITAL AND 5,6-BENZOFLAVONE, Method: GAS EXPOSURE)?
A: inactive; negative

Q: What about the mutagenic call (Test System: E. COLI, Strain/Indicator: WP2UVRA, Metabolic Activation: NONE, Method: GAS EXPOSURE) of the same compound?
A: inactive; negative

Q: And the mutagenic call (Test System: E. COLI, Strain/Indicator: WP2UVRA, Metabolic Activation: RAT, LIVER, S-9, SODIUM PHENOBARBITAL AND 5,6-BENZOFLAVONE, Method: GAS EXPOSURE)?
A: inactive; negative

Q: What about the mutagenic call (Test System: MOUSE LYMPHOMA, Strain/Indicator: L5178Y (TK+/TK-), Metabolic Activation: NONE, Method: SUSPENSION/PLATE) of the same compound?
A: active; positive

Q: Which mutagenic call (Test System: AMES SALMONELLA TYPHIMURIUM, Strain/Indicator: TA100, Metabolic Activation: POOLED HUMAN LIVER MICROSOMES, Method: PREINCUBATION) does the source give for c1cnc2c(c1)ccc1c2ccc2cccnc21 here?
A: active; positive

Q: What about the mutagenic call (Test System: AMES SALMONELLA TYPHIMURIUM, Strain/Indicator: TA100, Metabolic Activation: RAT, LIVER, S-9, PHENOBARBITAL AND 5,6-BENZOFLAVONE, Method: PREINCUBATION) of the same compound?
A: active; positive

Q: What about the mutagenic call (Test System: Ames Salmonella typhimurium, Strain/Indicator: TA100, Metabolic Activation: Rat, Liver, S-9) of the same compound?
A: active; positive

Q: What about the mutagenic call (Test System: LACZ TRANSGENIC MOUSE (MUTATM MOUSE), Strain/Indicator: LACZ MUTANT FREQUENCY, Method: LIVER, SPLEEN, LUNG, KIDNEY, BONE MARROW, COLON HARVESTED 7 D AFTER LAST DOSE, DNA ISOLATED) of the same compound?
A: active; positive; g:c to t:a transversions in all organs

Source: PubChem BioAssay AID1259407 (Chemical Carcinogenesis Research Information System (CCRIS), 2018)
